What was measured:
PTC of the ribosome [1] = target: PTC of the ribosome; design: method as in PMID 23824292; details: read-out: Apparent Ki, peptide release; cited from earlier work
PTC of the ribosome [2] = target: PTC of the ribosome; design: method as in PMID 23824292; details: fold higher Ki than for termination; cited from earlier work
[3] = tested on: Staphylococcus aureus strain ATCC29213; assay: MIC on bacterial growth, wt S. aureus (broth micro-dilution); type: cell-based
Method: The minimal inhibitory concentrations (MIC) of the drugs were measured in 96-well round-bottom microtiter plates using cation-adjusted Mueller-Hinton II (MH II) media. All measurements were done with at least three biological replicates. Briefly, bacterial colonies from a non-selective agar plate were re-suspended in 0.9% NaCl to 0.5 McFarland ( ≅1.5×10^8 cfu/ml). The cell suspension was further diluted to ≅5×10^5 cfu/ml (50 µl of bacterial suspension to 10 ml of MHII) and then 90 µl of cell suspension ( ≅5×10^5 cfu/l) was added to each well. […] The MIC value was determined visually as the lowest concentration of drug that inhibited growth.

[4] = tested on: Escherichia coli strain MG1655; assay: MIC on bacterial growth, wt E. coli (broth micro-dilution); type: cell-based; details: 500 mg l^−1 highest concentration tested
Method: The four different strains analyzed were wild type (wt) Staphylococcus aureus (strain ATCC 29213), wt Escherichia coli (strain MG1655, K12), a drug-hypersensitive E. coli lpxC mutant D22 (strain MG1655) and an efflux-defective E. coli ΔtolC mutant (strain MG1655). These were grown in cation-adjusted Mueller Hinton II media (MH II, Nordic Biolabs), the standard medium for antibiotic susceptibility testing. For overnight cell cultures one colony from a MH II (Nordic Biolabs) plate was inoculated in 1 ml MH II media in a 10 ml tube and the bacteria was incubated at 37 °C shaking at 190 rpm. Cells from the overnight culture was used for MIC determinations and time-kill experiments.
The minimal inhibitory concentrations (MIC) of the drugs were measured in 96-well round-bottom microtiter plates using cation-adjusted Mueller-Hinton II (MH II) media. All measurements were done with at least three biological replicates. Briefly, bacterial colonies from a non-selective agar plate were re-suspended in 0.9% NaCl to 0.5 McFarland ( ≅1.5×10^8 cfu/ml). The cell suspension was further diluted to ≅5×10^5 cfu/ml (50 µl of bacterial suspension to 10 ml of MHII) and then 90 µl of cell suspension ( ≅5×10^5 […]) was added to each well. […] The MIC value was determined visually as the lowest concentration of drug that inhibited growth.

| Compound | Ki (PTC of the ribosome [1]) [nM] | Ki for peptide bond formation relative to termination reaction (PTC of the ribosome [2]) [fold] | MIC S. aureus wt [3] [mg/L] | MIC E. coli K12 wt [4] [mg/L] |
| --- | --- | --- | --- | --- |
| CN(CC[C@H](N)CC(=O)N[C@H]1C=C[C@H](n2ccc(N)nc2=O)O[C@@H]1C(=O)O)C(=N)N [Blasticidin S] | ~30 | 6 |  |  |
| kirromycin |  |  | 100 | 50 |
